Data taken from patent publication US20050107465A1, “Composition for treating inflammatory bowel disease” (priority 2003, published 2005).
“Also recorded” adds a separate entry of the source.

Tested on: MAdCAM-1 expression in murine colon microvessel endothelial cells
Assay: Western blot assay for TNF-α induced MAdCAM-1 expression in murine colon microvessel endothelial cells
Format: cell-based
Conditions: EC monolayer pre-treated with test agent, then TNF-α 20 ng/ml for 24 hours, western blot densitometry (FIG. 2)
Method: A line of murine colon microvessel endothelial cells was developed for use as an in vitro model of colon inflammatory adhesion molecule expression in IBD. Immortomouse mice were used as tissue sources for these studies. Colon segments were sterilely removed and treated with collagenase (0.2%, 45 min) and cultured in d-valine MEM with IFN-g (10 U/ml) with 2% FCS and non-essential amino acids and vitamins. These cells were cultured on gelatin and were maintained at 37 C. for 24 hours prior to exposure to treatment protocols. In treatments, cells cultured on 24 well plates were incubated in either medium, or medium containing antioxidant or antioxidant admixture ± vitamin E TPGS for 24-48 hour prior to the administration of inflammatory cytokine (TNF-α, 20 ng/ml). At 24 hours combined treatments, monolayers were evaluated for MAdCAM-1 by standard western blotting.
EC cells developed as above were cultured in 2% fetal calf serum, with 50 U/ml interferon-gamma, d-valine supplemented MEM, 1% penicillin/streptomycin and 1 % non-essential amino acids using tissue culture were pre-coated with 1 % gelatin. Adhesion molecule expression was measured in these cells by switching cells to medium without interferon, culturing for 48 hours and then pre-treating cells with test agents for 24 hours prior to exposure to TNF-α for an additional 24 hours. MAdCAM-1 expression was measured using standard western blotting procedures described above. One hundred μg of protein was loaded per lane in non-denaturing sample buffer (w/o mercaptoethanol) and electrophoresed, and subsequently transferred to nitrocellulose. After blocking (5% milk, 2 h), blots were incubated in MAdCAM-1 antibody (10 ug/ml) for 12 hours and reacted by enhanced chemiluminescence (ECL). Gels were analyzed by densitometric analysis by scanning x-ray replicas of the exposed blots.
A murine colon microvessel endothelial cell line (EC monolayer) was developed as described above. Cytokine induced MAdCAM-1 expression in these cells was determined via Western Blot assay described above. An initial experiment evaluated the ability of gamma-tocopherol alone or formulated with vitamin E TPGS to block cytokine induction of MAdCAM-1 in this cell line is shown in FIG. 2.

| Compound | effect on cytokine induced MAdCAM-1 expression (in words) | effect on cytokine induced MAdCAM-1 expression (in words) (listed as coenzyme Q10) | decrease in MAdCAM-1 expression | effect on cytokine induced MAdCAM-1 expression (in words) (listed as vitamin E TGPS) |
| --- | --- | --- | --- | --- |
| COC1=C(OC)C(=O)C(C/C=C(\C)CC/C=C(\C)CC/C=C(\C)CC/C=C(\C)CC/C=C(\C)CC/C=C(\C)CC/C=C(\C)CC/C=C(\C)CC/C=C(\C)CCC=C(C)C)=C(C)C1=O [Coenzyme Q10] | less beneficial than alpha-tocopherol therapy | relatively minor effect | – | – |
| Cc1c(C)c2c(c(C)c1O)CC[C@@](C)(CCC[C@H](C)CCC[C@H](C)CCCC(C)C)O2 [alpha-tocopherol] | relatively minor effect; also recorded: significantly less effective than gamma-tocopherol alone | – | – | – |
| Cc1c(O)cc2c(c1C)O[C@](C)(CCC[C@H](C)CCC[C@H](C)CCCC(C)C)CC2 [gamma-tocopherol] | significantly decrease | – | at least 50% | – |
| vitamin E TPGS | relatively small effect; also recorded: only a slight decrease | – | – | relatively minor effect |
